Numbered stars: 1 amine (or outer) side, 2 acyl side, 3 side chain; on linkers, the order of the positions; unused ones are H or OH. Side chains are listed from the residue outwards. Peptide text beside a SMILES is read from it. * marks the point of attachment. C18 diacid = O=C(O)CCCCCCCCCCCCCCCCC(=O)*; γGlu = O=C(O)[C@H](CCC(=O)[*:2])N[*:1]; AEEA = NCCOCCOCC(=O)O

The data set in a line: Assay (II) PK i.v. minipig, in vivo half-life. The arrangement: species or system Göttingen mini-pigs. The conditions noted are these: male, Göttingen, minipig, iv, Half-life minipig, Assay (II). As for the experimental part:
An assay useful for measuring the pharmacokinetic (PK) profile of the PP peptide is the following mini-pig PK assay.
Five male Göttingen mini-pigs weighing approximately 18 to 22 kg from Ellegaard Göttingen Minipigs NS, Denmark are included in the study. The mini-pigs have two central venous catheters inserted which are used for intra venous (i.v.) dosing and blood sampling. The test compound is dissolved in 50 mM K2HPO4, 0.05% tween 80, pH=8.0 to a concentration of 180 nmol/ml. For comparison a control compound, such as human PP(1-36), may be administered. The pigs are dosed with 6 nmol test compound/kg body weight. Blood samples are taken at the following time points: pre-dose, 30 minutes, 1, 2, 4, 8, 24, 48, 72, 96, 120, 168 and 240 hours post dosing. The blood samples were collected into test tubes containing EDTA buffer for stabilization and kept on ice for max. 20 minutes before centrifugation. The centrifugation procedure to separate plasma may be: 4° C., approx. 2500 g for 10 minutes. Plasma is collected and immediately transferred to Micronic tubes stored at −20° C. until assayed.
The test compounds were assayed in plasma by Turbulent Flow Chromatography coupled to Liquid Chromatography with subsequent Tandem Mass Spectrometric Detection (TFC/LC/MS/MS). Positive mode ionization and Multiple Reaction Monitoring (MRM) of a multiple protonated species fragmented to a singly charged ion was employed for selectivity. The selectivity of the method allows multiple compounds to be quantified in one sample.
The concentrations of the test compound in samples of unknown concentration were calculated using the peak area as a function of amount. Calibration graphs based on plasma samples spiked with the analyte were constructed by regression analysis. Typical dynamic range for standard assay was 1-2000 nmol/I. The method performance was assured by co-assaying quality control (QC) samples in duplicate at three concentration levels.
Stock and working solutions of analytes were prepared in plasma and incubated by 37° C. for 1 hour.
Sample Preparation: 40.0 μl EDTA-plasma was added 160 μl 50% methanol, 1% formic acid, then vortexed and centrifuged at 16457 g at 4° C. for 20 minutes. The supernatant was transferred to a 96 well plate, plates incubated with 0.4% BSA, 37° C. for ½ hour. Injection volume was 25 μl.
The analysis was carried out on a Sciex API 3000 mass spectrometer (MDS/Sciex, Concord, ON, Canada) using a TurbolonSpray interface. The TFC/LC system consisted of two Flux Rheos 2000 quaternary pumps, a Cohesive VIM module (Cohesive Technologies, Franklin, Mass., USA) and a CTC LC/PAL auto sampler (CTC Analytics, Zingen, Switzerland). The centrifuge employed was a HettichMikro 22R (A. Hettich, Tuttlingen, Germany). For sample clean up a TurboFlow C8 column (0.5×50 mm) (Cohesive Technologies/Thermofisher) was used and the LC separation was done on a Proteo 4 μm column (2.0×50 mm) (Phenomenex, Torrance, Calif., USA). Eluents were isocratic and gradient combinations of methanol, acetonitril, Milli-Q water and formic acid.
Non-compartmental analysis (NCA): Plasma concentration-time profiles are analyzed by non-compartmental pharmacokinetics analysis (NCA) using WinNonlin Professional 5.0 (Pharsight Inc., Mountain View, Calif., USA). NCA is performed using the individual plasma concentration-time profiles from each animal.
Consider `CC[C@H](C)[C@H](NC(=O)[C@H](Cc1ccc(O)cc1)NC(=O)[C@H](CCCNC(=N)N)NC(=O)[C@H](CCCCNC(=O)COCCOCCNC(=O)COCCOCCNC(=O)CC[C@H](NC(=O)CCCCCCCCCCCCCCCCC(=O)O)C(=O)O)NC(=O)[C@H](CC(C)C)NC(=O)[C@H](CC(=O)O)NC(=O)[C@H](C)NC(=O)[C@H](C)NC(=O)[C@H](Cc1ccc(O)cc1)NC(=O)[C@H](CCC(N)=O)NC(=O)[C@H](C)NC(=O)[C@H](CCSC)NC(=O)[C@H](CCC(N)=O)NC(=O)[C@H](CCC(=O)O)NC(=O)[C@@H]1CCCN1C(=O)[C@@H](NC(=O)[C@H](C)NC(=O)[C@H](CC(N)=O)NC(=O)[C@H](CC(=O)O)NC(=O)CNC(=O)[C@@H]1CCCN1C(=O)[C@H](Cc1ccc(O)cc1)NC(=O)[C@@H](NC(=O)[C@@H]1CCCN1C(=O)[C@H](CCC(=O)O)NC(=O)[C@@H](N)CC(C)C)C(C)C)[C@@H](C)O)C(=O)N[C@@H](CC(N)=O)C(=O)N[C@@H](CCSC)C(=O)N[C@@H](CC(C)C)C(=O)N[C@H](C(=O)N[C@@H](CCCNC(=N)N)C(=O)N1CCC[C@H]1C(=O)N[C@@H](CCCNC(=N)N)C(=O)N[C@@H](Cc1ccc(O)cc1)C(N)=O)[C@@H](C)O` [Compound AQ] (H-LEPVYPGDNATPEQMAQYAADLK([AEEA-AEEA-γGlu-C18 diacid])RYINMLTRPRY-NH2; N-terminus and C-terminus assumed), for which the half-life is 48 h. Take `CC[C@H](C)[C@H](NC(=O)[C@H](Cc1ccc(O)cc1)NC(=O)[C@H](CCCNC(=N)N)NC(=O)[C@H](CCCNC(=N)N)NC(=O)[C@H](CC(C)C)NC(=O)[C@H](CC(=O)O)NC(=O)[C@H](C)NC(=O)[C@H](C)NC(=O)[C@H](Cc1ccc(O)cc1)NC(=O)[C@H](CCC(N)=O)NC(=O)[C@H](C)NC(=O)[C@H](CCSC)NC(=O)[C@H](CCC(N)=O)NC(=O)[C@H](CCC(=O)O)NC(=O)[C@@H]1CCCN1C(=O)[C@@H](NC(=O)[C@H](C)NC(=O)[C@H](CC(N)=O)NC(=O)[C@H](CC(=O)O)NC(=O)CNC(=O)[C@H](CCCCNC(=O)COCCOCCNC(=O)COCCOCCNC(=O)CC[C@H](NC(=O)CCCCCCCCCCCCCCCCC(=O)O)C(=O)O)NC(=O)[C@H](Cc1ccc(O)cc1)NC(=O)[C@@H](NC(=O)[C@@H]1CCCN1C(=O)[C@H](CCC(=O)O)NC(=O)[C@@H](N)CC(C)C)C(C)C)[C@@H](C)O)C(=O)N[C@@H](CC(N)=O)C(=O)N[C@@H](CCSC)C(=O)N[C@@H](CC(C)C)C(=O)N[C@H](C(=O)N[C@@H](CCCNC(=N)N)C(=O)N1CCC[C@H]1C(=O)N[C@@H](CCCNC(=N)N)C(=O)N[C@@H](Cc1ccc(O)cc1)C(N)=O)[C@@H](C)O` [Compound BH]: the half-life was 10 h.

In the case of `CC[C@H](C)[C@H](NC(=O)[C@H](Cc1ccc(O)cc1)NC(=O)[C@H](CCCNC(=N)N)NC(=O)[C@H](CCCNC(=N)N)NC(=O)[C@H](CC(C)C)NC(=O)[C@H](CC(=O)O)NC(=O)[C@H](C)NC(=O)[C@H](C)NC(=O)[C@H](Cc1ccc(O)cc1)NC(=O)[C@H](CCC(N)=O)NC(=O)[C@H](C)NC(=O)[C@H](CCSC)NC(=O)[C@H](CCC(N)=O)NC(=O)[C@H](CCC(=O)O)NC(=O)[C@@H]1CCCN1C(=O)[C@@H](NC(=O)[C@H](C)NC(=O)[C@H](CC(N)=O)NC(=O)[C@H](CC(=O)O)NC(=O)CNC(=O)[C@@H]1CCCN1C(=O)[C@H](Cc1ccc(O)cc1)NC(=O)[C@@H](NC(=O)[C@H](CCCCNC(=O)COCCOCCNC(=O)COCCOCCNC(=O)CC[C@H](NC(=O)CCCCCCCCCCCCCCCCC(=O)O)C(=O)O)NC(=O)[C@H](CCC(=O)O)NC(=O)[C@@H](N)CC(C)C)C(C)C)[C@@H](C)O)C(=O)N[C@@H](CC(N)=O)C(=O)N[C@@H](CCSC)C(=O)N[C@@H](CC(C)C)C(=O)N[C@H](C(=O)N[C@@H](CCCNC(=N)N)C(=O)N1CCC[C@H]1C(=O)N[C@@H](CCCNC(=N)N)C(=O)N[C@@H](Cc1ccc(O)cc1)C(N)=O)[C@@H](C)O` [Compound BK], the half-life is 54 h. For `CC[C@H](C)[C@H](NC(=O)[C@H](Cc1ccc(O)cc1)NC(=O)[C@H](CCCNC(=N)N)NC(=O)[C@H](CCCNC(=N)N)NC(=O)[C@H](CC(C)C)NC(=O)[C@H](CC(=O)O)NC(=O)[C@H](C)NC(=O)[C@H](C)NC(=O)[C@H](Cc1ccc(O)cc1)NC(=O)[C@H](CCC(N)=O)NC(=O)[C@H](C)NC(=O)[C@H](CCSC)NC(=O)[C@H](CCC(N)=O)NC(=O)[C@H](CCC(=O)O)NC(=O)[C@@H]1CCCN1C(=O)[C@@H](NC(=O)[C@H](C)NC(=O)[C@H](CC(N)=O)NC(=O)[C@H](CC(=O)O)NC(=O)CNC(=O)[C@@H]1CCCN1C(=O)[C@H](Cc1ccc(O)cc1)NC(=O)[C@@H](NC(=O)[C@@H]1CCCN1C(=O)[C@H](CCC(=O)O)NC(=O)[C@H](CC(C)C)NC(=O)[C@@H]1CCCN1)C(C)C)[C@@H](C)O)C(=O)N[C@@H](CC(N)=O)C(=O)N[C@@H](CCCCNC(=O)COCCOCCNC(=O)COCCOCCNC(=O)CC[C@H](NC(=O)CCCCCCCCCCCCCCCCC(=O)O)C(=O)O)C(=O)N[C@@H](CC(C)C)C(=O)N[C@H](C(=O)N[C@@H](CCCNC(=N)N)C(=O)N1CCC[C@H]1C(=O)N[C@@H](CCCNC(=N)N)C(=O)N[C@@H](Cc1ccc(O)cc1)C(N)=O)[C@@H](C)O` [Compound D] (H-PLEPVYPGDNATPEQMAQYAADLRRYINK([AEEA-AEEA-γGlu-C18 diacid])LTRPRY-NH2; N-terminus and C-terminus assumed), the half-life was 77 h.

In the case of `CC[C@H](C)[C@H](NC(=O)[C@H](Cc1ccc(O)cc1)NC(=O)[C@H](CCCNC(=N)N)NC(=O)[C@H](CCCNC(=N)N)NC(=O)[C@H](CC(C)C)NC(=O)[C@H](CC(=O)O)NC(=O)[C@H](CCCCNC(=O)COCCOCCNC(=O)COCCOCCNC(=O)CC[C@H](NC(=O)CCCCCCCCCCCCCCCCC(=O)O)C(=O)O)NC(=O)[C@H](C)NC(=O)[C@H](Cc1ccc(O)cc1)NC(=O)[C@H](CCC(N)=O)NC(=O)[C@H](C)NC(=O)[C@H](CCSC)NC(=O)[C@H](CCC(N)=O)NC(=O)[C@H](CCC(=O)O)NC(=O)[C@@H]1CCCN1C(=O)[C@@H](NC(=O)[C@H](C)NC(=O)[C@H](CC(N)=O)NC(=O)[C@H](CC(=O)O)NC(=O)CNC(=O)[C@@H]1CCCN1C(=O)[C@H](Cc1ccc(O)cc1)NC(=O)[C@@H](NC(=O)[C@@H]1CCCN1C(=O)[C@H](CCC(=O)O)NC(=O)[C@@H](N)CC(C)C)C(C)C)[C@@H](C)O)C(=O)N[C@@H](CC(N)=O)C(=O)N[C@@H](CCSC)C(=O)N[C@@H](CC(C)C)C(=O)N[C@H](C(=O)N[C@@H](CCCNC(=N)N)C(=O)N1CCC[C@H]1C(=O)N[C@@H](CCCNC(=N)N)C(=O)N[C@@H](Cc1ccc(O)cc1)C(N)=O)[C@@H](C)O` [Compound AT] (H-LEPVYPGDNATPEQMAQYAK([AEEA-AEEA-γGlu-C18 diacid])DLRRYINMLTRPRY-NH2; N-terminus and C-terminus assumed), the half-life is 34 h. As to `CC[C@H](C)[C@H](NC(=O)[C@H](Cc1ccc(O)cc1)NC(=O)[C@H](CCCNC(=N)N)NC(=O)[C@H](CCCNC(=N)N)NC(=O)[C@H](CC(C)C)NC(=O)[C@H](CC(=O)O)NC(=O)[C@H](C)NC(=O)[C@H](C)NC(=O)[C@H](Cc1ccc(O)cc1)NC(=O)[C@H](CCC(N)=O)NC(=O)[C@H](CCCCNC(=O)COCCOCCNC(=O)COCCOCCNC(=O)CC[C@H](NC(=O)CCCCCCCCCCCCCCCCC(=O)O)C(=O)O)NC(=O)[C@H](CCSC)NC(=O)[C@H](CCC(N)=O)NC(=O)[C@H](CCC(=O)O)NC(=O)[C@@H]1CCCN1C(=O)[C@@H](NC(=O)[C@H](C)NC(=O)[C@H](CC(N)=O)NC(=O)[C@H](CC(=O)O)NC(=O)CNC(=O)[C@@H]1CCCN1C(=O)[C@H](Cc1ccc(O)cc1)NC(=O)[C@@H](NC(=O)[C@@H]1CCCN1C(=O)[C@H](CCC(=O)O)NC(=O)[C@H](CC(C)C)NC(=O)[C@@H]1CCCN1)C(C)C)[C@@H](C)O)C(=O)N[C@@H](CC(N)=O)C(=O)N[C@@H](CCSC)C(=O)N[C@@H](CC(C)C)C(=O)N[C@H](C(=O)N[C@@H](CCCNC(=N)N)C(=O)N1CCC[C@H]1C(=O)N[C@@H](CCCNC(=N)N)C(=O)N[C@@H](Cc1ccc(O)cc1)C(N)=O)[C@@H](C)O` [Compound P] (H-PLEPVYPGDNATPEQMK([AEEA-AEEA-γGlu-C18 diacid])QYAADLRRYINMLTRPRY-NH2; N-terminus and C-terminus assumed), the half-life was 71 h.

The values above are taken from patent publication US20150141336A1, “Pancreatic Peptide Compounds and Use” (Novo Nordisk A/S, priority 2012, published 2015).
